What is called IC50 is the concentration at which inhibition is half-maximal. The MIC is the lowest concentration that inhibits growth of the organism. Broadly, the zone of inhibition is the size of the clear area around the sample on an inoculated plate.

15 compounds from article PMC7910904, “Improving the Antioxidant Properties of Calophyllum inophyllum Seed Oil from French Polynesia: Development and Biological Applications of Resinous Ethanol-Soluble Extracts” (Antioxidants, 2021) can be followed below.

Values after ≈ are worked out from the molar mass of the structure shown.

A short description of experiment [1]: Total peroxyl radical-trapping potential (TRAP) assay. Particulars: for TRAP TE: metabolites and standards: activity of a 1 µM-solution relative to 1 µM Trolox. On the procedure:
The experimental protocol of the TRAP assay was previously reported. Briefly, AAPH (150 mM) was dissolved in 10 mL of Tris HCl buffer solution (100 mM, pH 7.4), and the solution was kept at 37 °C for 30 min to initiate thermal radical formation. A luminol stock solution (1 mM) was prepared in 50 mL Tris HCl buffer and kept in darkness at 4 °C. A 78 µM, working luminol solution was prepared before each assay by dilution in Tris HCl buffer. Samples for assays were prepared as follows: 2 mL of AAPH (final concentration, 100 mM) and 500 μL of luminol solution (final concentration, 13 µM) were introduced in a 3 mL tube; then, 500 μL of pure acetone (blank) or solution of the tested oil or extract in acetone (0.005–0.2 mg/mL) or DMSO (test compounds: 5–300 µM) were added and the mixture vortexed for 5 s before luminescence analysis. A calibration curve was obtained in the same conditions using the antioxidant Trolox (1–40 μM) as a standard.
Quantification of radical scavenging capacity was performed by integrating the area under the curve (AUC) for the sample and blank solutions, and the results are expressed as Trolox Equivalents (TE) using Equation (2):TE = ([Trolox] × ΔAUC Sample)/([Sample] × ΔAUC Trolox)(2) where ΔAUC Sample (Trolox) = AUC Blank − AUC Sample (Trolox).

A further experiment can be described thus: DPPH assay. Particulars: for IC50: metabolites and standards, in dichloromethane. On the procedure:
Experiments were performed according to previous procedures. Aliquots of dichloromethane solutions of oil or fractions (50–500 mg/mL) or test compounds (final concentration 0.01–2 mM) were added to 200 µL of a freshly prepared DPPH solution (75 mg/L), and the final volume was adjusted to 300 µL with dichloromethane to obtain a final DPPH concentration of 0.13 mM. The absorbance was read at 517 nm on a microplate reader 3 min after sample addition. Experiments were performed in triplicate and averaged. The DPPH inhibition was calculated as follows:Inhibition (%) = [100 × (A0 − A)/A0](1)
Background: DPPH is a stable violet radical that fades when it is reduced.

Another experiment deals with 3T3 fibroblasts. In words: MTT cytotoxicity on 3T3 fibroblasts. It counts as cell-based, murine. Particulars: Mus musculus, Fibroblast, 50% viability after 48 h.
For another experiment, the system named is M. tuberculosis H37 RV. Put plainly: Anti-mycobacterial Microplate-based Alamar Blue assay (MABA). Conditions: Mycobacterium tuberculosis, H37RV. It counts as cell-based. In general terms: Resazurin is reduced to fluorescent resorufin, in cell work by metabolically active cells.
In experiment [2] the test system is Staphylococcus aureus (ATCC 6538). Put plainly: Antimicrobial disk-diffusion agar method. It is filed as cell-based. Conditions: for zone of inhibition at 20 µg/disc: Staphylococcus aureus, ATCC6538, 20 µg/disk, 24 h, read-out: S. aureus Diameter of the zone of inhibition; for Antimicrobial activity against S. aureus, in words: 20 µg per disc.
In experiment [3] the test system is A549 human lung carcinoma cells. In words: MTT cytotoxicity on A549 cells. It counts as cell-based. Conditions: 50% viability after 48 h.

`Cc1c(C)c2c(c(C)c1O)CCC(C)(C(=O)O)O2` (stereo not shown) [Trolox, 6-hydroxy-2,5,7,8-tetramethylchroman-2-carboxylic acid, reference compound]: the “TRAP TE” value in experiment [1] came out at 1 TE. In the experiment “DPPH assay”, the IC50 was determined as 21.2 ± 0.8 µM.
As to `CCC(C)c1cc(=O)oc2c3c(c4c(c12)OC(C)(C)C=C4)OC(C)C(C)C3O` (stereo not shown) [Tamanolide D], the IC50 with 3T3 fibroblasts was found to be 46 ± 5 µg/mL (≈ 120 µM); in experiment [3] it was 9.3 ± 1.2 µg/mL (≈ 24.2 µM); in “DPPH assay” it was 779 ± 7 µM. In addition, the “TRAP TE” value in experiment [1] came to 1.36 ± 0.20 TE. For the same compound, in the experiment with M. tuberculosis H37 RV, the MIC is 5.1 ± 0.3 µg/mL (≈ 13.3 µM). The zone of inhibition at 20 µg/disc in experiment [2] turned out to be 12 ± 2 mm. In the experiment “DPPH assay”, the “DPPH scavenging capacity, in words” value is reported as “moderately active”.
As for `C[C@@H]1[C@@H](C)Oc2c3c(c4c(-c5ccccc5)cc(=O)oc4c2[C@@H]1O)OC(C)(C)C=C3` [Inophyllum P], the IC50 with 3T3 fibroblasts came out at 92 ± 4 µg/mL (≈ 227 µM). Further, in experiment [1], the “TRAP activity, in words” value is given as “strong antioxidant activity”; the “TRAP efficiency relative to Trolox” value is given as “about four times more efficient than Trolox”; the “TRAP TE” value is reported as 4.11 ± 0.10 TE. The MIC in the experiment on M. tuberculosis H37 RV amounted to 5.7 ± 0.3 µg/mL (≈ 14.1 µM). Besides, in experiment [2], the “Antimicrobial activity against S. aureus, in words” value (shortened to “Antimicrobial activity”) is “significant activity” and the zone of inhibition at 20 µg/disc turned out to be 17 ± 1 mm. In experiment [3], this compound gave an IC50 of 11.3 ± 0.6 µg/mL (≈ 27.9 µM). Also, in “DPPH assay”, the “DPPH scavenging capacity, in words” value is listed as “strongly active”; the “DPPH: times more active than inophyllums E and C” value was 20–30 times; the IC50 stood at 26.2 ± 3.1 µM.
As for `[H]/N=C(/N)N[C@H]1[C@H](O)[C@@H](O)[C@H](O[C@@H]2O[C@@H](C)[C@](O)(C=O)[C@H]2O[C@@H]2O[C@@H](CO)[C@H](O)[C@@H](O)[C@@H]2NC)[C@@H](N/C(N)=N\[H])[C@@H]1O` [Streptomycin, reference compound], the MIC against M. tuberculosis H37 RV stood at 0.4 ± 0.1 µg/mL (≈ 0.688 µM).
As for `C[C@@H]1C(=O)c2c(c3c(c4c(-c5ccccc5)cc(=O)oc24)OC(C)(C)C=C3)O[C@@H]1C` [Inophyllum E], the IC50 in the experiment on 3T3 fibroblasts came out at 120 ± 9 µg/mL (≈ 298 µM); in experiment [3], 44.8 ± 2.2 µg/mL (≈ 111 µM); in “DPPH assay” it was 481 ± 7 µM. In addition, the “TRAP activity, in words” value in experiment [1] is on record as “weakly active”. For the same compound, the “TRAP TE” value in experiment [1] was 0.91 ± 0.04 TE. The compound also returned an MIC against M. tuberculosis H37 RV of more than 15 µg/mL. Also, in experiment [2], the zone of inhibition at 20 µg/disc turned out to be 14 ± 2 mm. For the same compound, the “DPPH scavenging capacity, in words” value in the experiment “DPPH assay” is “moderately active”.
As for `C/C=C(\C)C(=O)c1c(OC)c2c(c3c(CCC)cc(=O)oc13)OC(C)(C)C=C2` [Calanolide GUT 70], in experiment [1], the “TRAP activity, in words” value is on record as “weakly active” and the “TRAP TE” value was 0.30 ± 0.03 TE. For the same compound, in “DPPH assay”, the “DPPH scavenging capacity, in words” value is reported as “slightly active” and the IC50 is approximately 900 µM.
As for `COc1ccc(O)c(C(C)(C)C)c1` [BHA, reference compound], in experiment [1], the “TRAP TE” value is listed as 3.46 ± 0.20 TE. In addition, the IC50 in “DPPH assay” is 94.9 ± 6.1 µM.
For the compound `CCCc1cc(=O)oc2c3c(c4c(c12)OC(C)(C)C=C4)O[C@H](C)[C@@H](C)[C@@H]3O` [Calanolide A], the IC50 in the experiment with 3T3 fibroblasts is 52 ± 8 µg/mL (≈ 140 µM); in experiment [3], 8.2 ± 1.7 µg/mL (≈ 22.1 µM); in the experiment “DPPH assay”, approximately 950 µM. Besides, the “TRAP TE” value in experiment [1] turned out to be 0.40 ± 0.02 TE. In addition, in the experiment with M. tuberculosis H37 RV, the MIC is 4.1 ± 0.3 µg/mL (≈ 11.1 µM). The zone of inhibition at 20 µg/disc in experiment [2] stood at 14 ± 1 mm. The “DPPH scavenging capacity, in words” value in “DPPH assay” was “slightly active”.
Take `C=C(C)C(CC=C(C)C)CC1(CC=C(C)C)C(=O)C(C(CCC)CC(=O)O)=C(O)C2=C1O[C@H](C)[C@@H](C)C2=O` (stereo partly shown) [Inocalophyllin B]: in the experiment with 3T3 fibroblasts, half-maximal inhibition (IC50) was put at 41 ± 5 µg/mL (≈ 77.8 µM). Further, in experiment [1], the “TRAP activity, in words” value is reported as “significant TRAP activity” and the “TRAP TE” value came out at 1.07 ± 0.06 TE. This compound also returned an MIC against M. tuberculosis H37 RV of more than 15 µg/mL. Moreover, in experiment [2], the “Antimicrobial activity” value is reported as “active” and the zone of inhibition at 20 µg/disc worked out at 20 ± 2 mm. This compound had an IC50 in experiment [3] of 4.2 ± 1.3 µg/mL (≈ 7.97 µM). For the same compound, in “DPPH assay”, the “DPPH scavenging capacity, in words” value was “moderately active” and the IC50 was 583 ± 17 µM.
`C[C@H]1Oc2c3c(c4c(-c5ccccc5)cc(=O)oc4c2C(=O)[C@@H]1C)OC(C)(C)C=C3` [Inophyllum C]: in experiment [1], the “TRAP activity, in words” value is “weakly active” and the “TRAP TE” value was 0.21 ± 0.04 TE. Besides, in “DPPH assay”, the “DPPH scavenging capacity, in words” value is recorded as “moderately active” and the IC50 was 701 ± 9 µM.
In turn, `C/C=C(\C)C(=O)c1c(OC)c2c(c3c(-c4ccccc4)cc(=O)oc13)OC(C)(C)C=C2` [Calophyllolide] had an IC50 in the experiment with 3T3 fibroblasts of 49 ± 4 µg/mL (≈ 118 µM). In experiment [1], the “TRAP activity, in words” value is reported as “weakly active” and the “TRAP TE” value was found to be 0.48 ± 0.08 TE. In addition, the MIC with M. tuberculosis H37 RV was more than 15 µg/mL. Further, in experiment [2], the “Antimicrobial activity” value was “significant activity” and the zone of inhibition at 20 µg/disc amounted to 19 ± 3 mm. Moreover, the IC50 in experiment [3] worked out at 3.1 ± 0.9 µg/mL (≈ 7.44 µM). For the same compound, in “DPPH assay”, the “DPPH scavenging capacity, in words” value was “slightly active” and the IC50 was approximately 890 µM.
As to `CCCc1cc(=O)oc2c3c(c4c(c12)OC(C)(C)C=C4)O[C@H](C)[C@@H](C)C3=O` [12-Oxocalanolide A], the IC50 is 36 ± 8 µg/mL (≈ 97.7 µM) in the experiment with 3T3 fibroblasts, 1.9 ± 0.1 µg/mL (≈ 5.16 µM) in experiment [3] and more than 1000 µM in “DPPH assay”. The compound also gave an MIC against M. tuberculosis H37 RV of more than 15 µg/mL. Moreover, in experiment [2], the “Antimicrobial activity” value was “significant activity”. For the same compound, the zone of inhibition at 20 µg/disc in experiment [2] stood at 18 ± 2 mm. Also, the “DPPH scavenging capacity, in words” value in “DPPH assay” is “inactive”.
Regarding `Oc1ccc2c(c1)OCO2` [Sesamol, reference compound], in experiment [1], the “TRAP TE” value came out at 1.34 ± 0.09 TE. The IC50 in “DPPH assay” came to 66.9 ± 3.1 µM.
As to `Cc1onc(-c2ccccc2)c1C(=O)N[C@@H]1C(=O)N2[C@@H]1SC(C)(C)[C@@H]2C(=O)O` [Oxacillin, reference compound], the zone of inhibition at 20 µg/disc in experiment [2] came out at 30 ± 1 mm.
In the case of `CCCc1cc(=O)oc2c3c(c4c(c12)OC(C)(C)C=C4)O[C@H](C)[C@H](C)C3=O` [Calanolide D], in “DPPH assay”, the “DPPH scavenging capacity, in words” value is “inactive” and the IC50 was more than 1000 µM.
